Test results as given in US6716411B2, “Method for finding nucleotide synthesis inhibitors having fewer side effects” (Aventis Pharma Deustschland GmbH, priority 1999, dated 2004).

How the values were obtained:
Type in all cases: in vivo
[1] = test system: adjuvant-induced arthritis; test: Adjuvant-induced arthritis model, dose-response relationship (Example 1); conditions: for Increase in body weight / Reduction in arthritis score / Reduction in paw swelling / Surviving animals: day 21
Description: The dose-response relationship of N-(4-trifluoromethylphenyl)-2-cyano-3-hyroxycrotonamide, hereafter referred to as compound 1, was drawn up in the adjuvant-induced arthritis model (method of Pearson C. M. and Wood F. D.; Arth. Rheum. 2: 44 (1959), and Taurog J. D., Argentieri D. C. et al., Meth. Enzymol. 162: 339 (1988)). The swelling of the paws, the formation of generalized symptoms of arthritis, know as the score index, the increase in the body weight during the experiment, and the survival of the animals were determined.
Compound 1 was administered orally from the start of the experiment onwards up to the end on day 21 in a 1% strength carboxymethlcellulose solution, (CMC). The control groups received corresponding amounts of 1% CMC without the active compound.
Six male Lewis rats having a body weight of approximately 210 g were employed in each experimental group.
Negative numbers indicate the worsening of the respective measurement parameter.
In the adjuvant-induced arthritis model in the rat, autoimmune reactions are observed which correspond to the autoimmune diseases of the rheumatic type in humans.

[2] = Blood plasma level of compound 1 in the rat with and without colestyramine (HPLC-MS/MS); conditions: for half-life: male, Lewis, rat, plasma
Procedure: A selective HPLC-MS/MS method was used for the detection of compound 1. The quantitative determination of compound 1 from the blood plasma was carried out as follows:
A solution of an internal standard, then 0.1 M NaOH solution and 1 ml of diethyl ether were added. The mixture was vigorously shaken and the organic phase was discarded. 0.5 N HCl solution was added to the aqueous phase, and the analyte and the internal standard were extracted with 1 ml of diethyl ether. The organic phase was evaporated and taken up in a 1:1 mixture of acetonitrile and water. 10 μl of this solution was injected into an HPLC unit.
The HPLC unit contained a Lichrospher C-18HD column. Using a flow rate of 1 ml/min, the analyte and the internal standard were eluted using the eluent combination acetonitrile+(ammonium acetate solution [10 mmolar]), 67+33, and then selectively detected by mass spectroscopy (LC-MS/MS analysis). During the analysis of the blood plasma samples, calibration samples were taken.
In order to test foreign substances in identical metabolic situations, compound 1 was given only to animals with adjuvant arthritis. The arthritis was induced according to Example 1. The animal weight was on average 210 g. Each group consisted of 6 male Lewis rats. Blood samples were obtained from the tail.
The influence on the blood plasma level of compound 1 was investigated by means of colestyramine. […] During combination therapy with colestyramine, 1000 mg/kg of colestyramine was administered 4 hours after administration of the compound 1. Control animals received 1% CMC at the appropriate times without any active compound. The influence on the pharmacokinetics of compound 1 by colestyramine was investigated both after single administration and after chronic administration of compound 1 with or without colestyramine. Blood samples were obtained 2, 4, 6, 8, 24 and 48 hours after the last administration of compound 1.
The term “area under the curve” (AUC) is understood as meaning the area under the concentration level of a pharmaceutical substance plotted as a function of time. The AUC reflects the extent to which an organism is exposed to a substance. The term “chronic administration” is understood as meaning an administration of the compound 1 over a period of time which at least leads to constant blood levels of the compound 1. These constant blood levels, referred to as the steady state, are achieved after approximately 4 to 5 half-lives of regular taking.

[3] = test system: pemphigus vulgaris; test: Observation of leflunomide treatment in humans; conditions: rheumatoid arthritis patients treated with leflunomide
Procedure: This diarrhea adversely affected the quality of life of the patient. Because of the problems caused by this side effect, an attempt was made, after more than two years' therapy with a constant dose of 20 mg of leflunomide per day, to end the therapy.
This observation was surprising, as the active metabolite of leflunomide, compound 1, has a half-life of approximately 14 days in humans. Furthermore, in this patient the blood levels of the active metabolite of leflunomide were repeatedly determined in the relatively high range between 70 mg/l and 85 mg/l.

[4] = chronic administration, 2.5 mg/kg of compound 1
[5] = chronic administration, 2.5 mg/kg of compound 1 and 1000 mg/kg of colestyramine 4 hours later
[6] = single administration, 2.5 mg/kg of compound 1
[7] = single administration, 2.5 mg/kg of compound 1 and 1000 mg/kg of colestyramine 4 hours later

## C/C(O)=C(\C#N)C(=O)Nc1ccc(C(F)(F)F)cc1 [compound 1, N-(4-trifluoromethylphenyl)-2-cyano-3-hydroxycrotonamide]
[1]; 1 mg/kg/day
  therapeutic action: an action could no longer be determined
[1]; 1 mg/kg/day orally
  Increase in body weight: 10%
  Reduction in arthritis score: −11%
  Reduction in paw swelling: −9%
  Surviving animals: 100%
[1]; 2.5 mg/kg/day orally
  Increase in body weight: 20%
  Reduction in arthritis score: 70%
  Reduction in paw swelling: 78%
  Surviving animals: 100%
[1]; 5 mg/kg/day orally
  Increase in body weight: 37%
  Reduction in arthritis score: 83%
  Reduction in paw swelling: 96%
[1]; 7.5 mg/kg/day orally
  Increase in body weight: 25%
  Reduction in arthritis score: 87%
  Reduction in paw swelling: 105%
[1]; 10 mg/kg/day orally
  Increase in body weight: 11%
  Reduction in arthritis score: 84%
  Reduction in paw swelling: 96%
[1]; 15 mg/kg/day orally
  Increase in body weight: 8%
  Reduction in arthritis score: 91%
  Reduction in paw swelling: 106%
[1]; 25 mg/kg/day orally
  Increase in body weight: −2%
  Reduction in arthritis score: 96%
  Reduction in paw swelling: 114%
[1]; orally once daily, adjuvant-induced arthritis, rat
  lowest efficacious dose: 2.5 mg/kg/day
[2]; [4]
  Area under the curve 0-48 hours: 63.58 μg/ml × hr
  Maximum blood plasma level: 5.73 µg/mL
[2]; [5]
  Area under the curve 0-48 hours: 37.81 μg/ml × hr
  Maximum blood plasma level: 4.66 µg/mL
[2]; oral, 2.5 mg/kg, chronic administration, 2.5 mg/kg of compound 1
  half-life: 3.45 h
[2]; oral, 2.5 mg/kg, single administration, 2.5 mg/kg of compound 1, rats with adjuvant arthritis
  half-life: 3.85 h
[2]; oral, chronic administration, 2.5 mg/kg of compound 1 and 1000 mg/kg of colestyramine 4 hours later
  half-life: 3.47 h
[2]; oral, single administration, 2.5 mg/kg of compound 1 and 1000 mg/kg of colestyramine 4 hours later
  half-life: 3.32 h
[2]; po, 2.5 mg/kg/day, in rats, approximately, orally administered
  half-life: 4 to 8 h
[2]; multiple administration
  AUC reduced by administration of colestyramine: 40%
[2]; single administration
  AUC reduced by administration of colestyramine: 30%
[2]; [6]
  Area under the curve 0-48 hours: 141.69 μg/ml × hr
  Maximum blood plasma level: 10.15 µg/mL
[2]; [7]
  Area under the curve 0-48 hours: 99.90 μg/ml × hr
  Maximum blood plasma level: 9.62 µg/mL
[3]
  blood levels of the compound 1: over 32 mg/l
